Ends that are not written are not given here.
These substances were tested on monoclonal antibody M30 (assay: ELISA reactivity of synthetic peptides with monoclonal antibody M30). Conditions: SEQ ID NO: 1 set at 100.
Format: binding, mouse
Description: These peptides having the amino acid sequences SEQ ID NO: 2 and 3 have been synthesized, and in an ELISA they bind to the mAb M 30 [relative activity: 100 for SEQ ID NO: 1; 11 for SEQ ID NO: 2; and 8.3 for SEQ ID NO: 3, respectively]. However, these two peptides are not expected to represent cleaved fragments of CK18 specific for apoptosis, since the mAb M 30 cannot bind to CK18 fragments until they expose the neo-epitope having the C-terminal sequence Ala Leu Asp.
The oligopeptides made in order to illustrate the invention were synthesized using the multipin peptide synthesis approach using polyethylene supports derivatized with an acid handle (Cf. Valerio, R. M., Bray, A. M. and Maeji, N. J. (1994) Multiple peptide synthesis on acid-labile handle derivatized polyethylene supports. Int. J. Peptide Protein Res. 44:158-165.). The synthesis was carried out on detachable pins grafted with hydroxyethylmethacrylate and functionalized with the trifluoroacetic acid-labile Rink amide forming handle. Peptides representing both the N and C terminal truncation series of the sequence EDFNLGDALD (SEQ ID NO:1) and other sequences were synthesized. Peptides were capped with biotin using the tetra peptide linker sequence—SGSG- or —SGSB- (B=βalanine), and attached to streptavidin coated plates in the enzyme-linked immunosorbent assay.
In order to characterize the MAb M30-epitope chemically, the M30was tested against a large number of synthetic peptides, that were especially made for this purpose.

Substance	relative activity (binding to mAb M 30 in ELISA)
EDFNLGDALD [SEQ ID NO: 1]	100
EDGEDFNLGDALDSSNSMQT [SEQ ID NO: 2]	11
LEDGEDFNLGDALDSSNS [SEQ ID NO: 3]	8.3

Same assay, conditions: biotin-capped peptide attached to streptavidin coated plates, ELISA with MAb M30

Substance	Absorbance at 405/492 nm
DALD (OTHER INFORMATION: Description of Artificial Sequence: epitope from mammalian protein) [Peptide 406]	0.1
DFNLGDALD (OTHER INFORMATION: Description of Artificial Sequence: epitope from mammalian protein) [Peptide 401]	0.62
DGEDFNLGDALD (OTHER INFORMATION: Description of Artificial Sequence: epitope from mammalian protein) [Peptide 46]	0.77
EDFNLGDALD (OTHER INFORMATION: Description of Artificial Sequence: epitope from mammalian protein) [Peptide 301]	1.46
EDGEDFNLGDALD (OTHER INFORMATION: Description of Artificial Sequence: epitope from mammalian protein) [Peptide 45]	1.05
FNLGDALD (OTHER INFORMATION: Description of Artificial Sequence: epitope from mammalian protein) [Peptide 402]	0.27
GDALD (OTHER INFORMATION: Description of Artificial Sequence: epitope from mammalian protein) [Peptide 405]	0.1
GEDFNLGDALD [47] (OTHER INFORMATION: Description of Artificial Sequence: epitope from mammalian protein) [Peptide 47]	1.23
GEDFNLGDALD [302] (OTHER INFORMATION: Description of Artificial Sequence: epitope from mammalian protein) [Peptide 302]	1.41
LEDGEDFNLGDAL (OTHER INFORMATION: Description of Artificial Sequence: epitope from mammalian protein) [Peptide 63]	0.05
LEDGEDFNLGDALDS (OTHER INFORMATION: Description of Artificial Sequence: epitope from mammalian protein) [Peptide 61]	0.1
LGDALD (OTHER INFORMATION: Description of Artificial Sequence: epitope from mammalian protein) [Peptide 404]	0.1
NLGDALD (OTHER INFORMATION: Description of Artificial Sequence: epitope from mammalian protein) [Peptide 403]	0.14

Same assay, conditions: truncation series of Table 1

Substance	activity (reactivity with MAb M30) in words
EDFNLGDALD [SEQ ID NO: 1]	maximal activity
